Bounds are passed on as bounds.

T1 sequence (P13569 with tags, fused parts or gaps DEL508-508): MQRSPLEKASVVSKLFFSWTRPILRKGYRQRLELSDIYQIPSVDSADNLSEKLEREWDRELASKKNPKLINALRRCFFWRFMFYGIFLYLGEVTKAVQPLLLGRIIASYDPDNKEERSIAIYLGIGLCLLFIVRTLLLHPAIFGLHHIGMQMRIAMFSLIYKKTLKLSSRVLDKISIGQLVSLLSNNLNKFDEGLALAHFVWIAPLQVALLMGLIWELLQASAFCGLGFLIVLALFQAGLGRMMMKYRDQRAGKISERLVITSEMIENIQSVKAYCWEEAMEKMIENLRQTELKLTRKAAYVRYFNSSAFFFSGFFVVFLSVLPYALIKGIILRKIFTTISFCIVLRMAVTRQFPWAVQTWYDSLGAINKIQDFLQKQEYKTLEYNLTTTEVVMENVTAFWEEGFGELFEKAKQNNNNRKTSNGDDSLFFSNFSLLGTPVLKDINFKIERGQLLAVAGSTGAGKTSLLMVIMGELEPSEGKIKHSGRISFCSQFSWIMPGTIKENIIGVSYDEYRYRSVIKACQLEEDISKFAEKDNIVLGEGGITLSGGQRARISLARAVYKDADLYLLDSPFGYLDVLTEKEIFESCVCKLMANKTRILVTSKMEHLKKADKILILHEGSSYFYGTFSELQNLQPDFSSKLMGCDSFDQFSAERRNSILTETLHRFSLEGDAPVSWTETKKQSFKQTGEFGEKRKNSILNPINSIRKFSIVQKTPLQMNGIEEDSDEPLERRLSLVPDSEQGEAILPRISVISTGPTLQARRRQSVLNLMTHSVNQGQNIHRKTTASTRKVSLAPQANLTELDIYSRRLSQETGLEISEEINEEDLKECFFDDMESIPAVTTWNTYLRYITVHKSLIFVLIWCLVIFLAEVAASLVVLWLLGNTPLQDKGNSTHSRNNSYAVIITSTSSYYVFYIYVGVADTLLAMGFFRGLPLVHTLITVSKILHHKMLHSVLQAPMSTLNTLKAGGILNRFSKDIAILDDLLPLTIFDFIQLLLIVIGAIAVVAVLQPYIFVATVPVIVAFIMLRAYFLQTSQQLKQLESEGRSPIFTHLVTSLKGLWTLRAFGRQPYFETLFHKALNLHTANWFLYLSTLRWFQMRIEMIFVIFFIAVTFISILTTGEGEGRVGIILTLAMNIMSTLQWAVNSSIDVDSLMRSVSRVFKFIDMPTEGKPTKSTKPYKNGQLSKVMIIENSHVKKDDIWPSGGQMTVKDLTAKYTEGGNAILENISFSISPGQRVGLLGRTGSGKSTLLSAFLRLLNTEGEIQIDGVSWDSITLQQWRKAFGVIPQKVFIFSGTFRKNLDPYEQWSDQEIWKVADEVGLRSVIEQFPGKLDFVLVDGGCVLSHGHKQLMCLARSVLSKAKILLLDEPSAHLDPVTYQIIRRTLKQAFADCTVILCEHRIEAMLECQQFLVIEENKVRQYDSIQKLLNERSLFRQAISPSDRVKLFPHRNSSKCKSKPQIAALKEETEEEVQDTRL

One assay concerns the target T1, F508del (Homo sapiens, UniProt P13569, DEL508-508).
T1 construct: expressed in transfected cells
The assay is described as follows: Protocol 2: FRET membrane potential optical assay (VIPR), identification of correction compounds. In kind it is cell-based. Conditions: F508del CFTR modulator activity; compounds of Table 1; read-out: EC30. An outline of the steps:
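Corrector readout: membrane-potential FRET (CC2-DMPE donor, DiSBAC2(3) acceptor) on VIPR II after Cl⁻-free gluconate bath with 10 μM forskolin and 20 μM genistein. Before this, F508del-expressing NIH3T3 cells were exposed to test compound for 16 h at 37 °C without serum; 27 °C incubation served as temperature-correction control.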
By EC30 is commonly meant the point of the concentration-response curve where the effect stands at 30%. Turning to `CC(C)Oc1c(F)cc(-c2ccc(C(=O)NS(=O)(=O)c3cccc(N)n3)c(N3C[C@@H](C)CC3(C)C)n2)cc1F` [Compound 2608, N-[(6-amino-2-pyridyl)sulfonyl]-6-(3,5-difluoro-4-isopropoxy-phenyl)-2-[(4S)-2,2,4-trimethylpyrrolidin-1-yl]pyridine-3-carboxamide], the EC30 was below 3000 nM.

With `Cc1cc(OC2CCCC2)cc(-c2cnc(N3CC(C)CC3(C)C)c(C(=O)NS(=O)(=O)c3cccc(N)n3)c2)c1` (centres unmarked) [Compound 2313, N-[(6-amino-2-pyridyl)sulfonyl]-5-[3-(cyclopentoxy)-5-methyl-phenyl]-2-(2,2,4-trimethylpyrrolidin-1-yl)pyridine-3-carboxamide], the EC30 was below 3000 nM.

Consider `Cc1cccc(-c2ccc(C(=O)NS(=O)(=O)c3ccccc3)c(N3C[C@@H](C)CC3(C)C)n2)c1O` [Compound 2133, N-(benzenesulfonyl)-6-(2-hydroxy-3-methyl-phenyl)-2-[(4S)-2,2,4-trimethylpyrrolidin-1-yl]pyridine-3-carboxamide], for which the EC30 was below 3000 nM.

In the case of `COC1CCN(c2cccc(S(=O)(=O)NC(=O)c3cccnc3N3CC(C)CC3(C)C)n2)CC1` (centres unmarked) [Compound 2732], the EC30 lay in the range of 3000 to 10000 nM.

For the molecule `CC1CN(c2ncc(-c3ccc(N(C)C)cc3)cc2C(=O)NS(=O)(=O)c2cccc(N)n2)C(C)(C)C1` (centres unmarked) [Compound 2288, N-[(6-amino-2-pyridyl)sulfonyl]-5-(4-dimethylaminophenyl)-2-(2,2,4-trimethylpyrrolidin-1-yl)pyridine-3-carboxamide], the EC30 is below 3000 nM.

`C[C@@H]1CN(c2nc(-c3cccc(C#N)c3)ccc2C(=O)NS(=O)(=O)c2ccc[nH]c2=O)C(C)(C)C1` [Compound 2185, 6-(3-cyanophenyl)-N-[(2-oxo-1H-pyridin-3-yl)sulfonyl]-2-[(4S)-2,2,4-trimethylpyrrolidin-1-yl]pyridine-3-carboxamide]: the EC30 was 3000 to 10000 nM.

For the molecule `CCOc1cc(C)c(-c2ccc(C(=O)NS(=O)(=O)c3cccc(N)n3)c(N3C[C@@H](C)CC3(C)C)n2)cc1C` [Compound 2227, N-[(6-amino-2-pyridyl)sulfonyl]-6-(4-ethoxy-2,5-dimethyl-phenyl)-2-[(4S)-2,2,4-trimethylpyrrolidin-1-yl]pyridine-3-carboxamide], the EC30 is below 3000 nM.

As to `CC1CN(c2ncccc2C(=O)NS(=O)(=O)c2cccc(N3CCc4ccccc4C3)n2)C(C)(C)C1` (centres unmarked) [Compound 2098, N—[[6-(3,4-dihydro-1H-isoquinolin-2-yl)-2-pyridyl]sulfonyl]-2-(2,2,4-trimethylpyrrolidin-1-yl)pyridine-3-carboxamide], the concentration for an effect of 30% (EC30) is below 3000 nM.

With `CC1CN(c2ncccc2C(=O)NS(=O)(=O)c2cccc(N3CCCC3)n2)C(C)(C)C1` (centres unmarked) [Compound 2561, N-[(6-pyrrolidin-1-yl-2-pyridyl)sulfonyl]-2-(2,2,4-trimethylpyrrolidin-1-yl)pyridine-3-carboxamide], the EC30 is below 3000 nM.

In the case of `COc1cccc(-c2ccc(C(=O)NS(=O)(=O)c3cccnc3N)c(N3C[C@@H](C)CC3(C)C)n2)c1` [Compound 2164, N-[(2-amino-3-pyridyl)sulfonyl]-6-(3-methoxyphenyl)-2-[(4S)-2,2,4-trimethylpyrrolidin-1-yl]pyridine-3-carboxamide], the EC30 is below 3000 nM.

The same assay, now with this note: Table 3; compounds of Table 1 as modulators of CFTR activity; protocol not stated.
In the case of `CCOc1ccc(C(=O)NS(=O)(=O)c2cccc(N)n2)c(Oc2c(C)cc(C)cc2C)n1` [Compound 637, N-[(6-amino-2-pyridyl)sulfonyl]-6-ethoxy-2-(2,4,6-trimethylphenoxy)pyridine-3-carboxamide], the EC30 result was “++ (“++” means between 3 uM and 10 uM)”.

As to `CCCOc1cc(-c2ccc(C(=O)NS(=O)(=O)c3cccc(N)n3)c(N3CC(C)CC3(C)C)n2)ccn1` (centres unmarked) [Compound 491, N-[(6-amino-2-pyridyl)sulfonyl]-6-(2-propoxy-4-pyridyl)-2-(2,2,4-trimethylpyrrolidin-1-yl)pyridine-3-carboxamide], the EC30 entry was “+++ (“+++” means <3 uM)”.

Regarding `CCOc1ccc(F)c(-c2ccc(C(=O)NS(=O)(=O)c3cccc(N)n3)c(Oc3c(C)cc(C)cc3C)n2)c1` [Compound 599, N-[(6-amino-2-pyridyl)sulfonyl]-6-(5-ethoxy-2-fluoro-phenyl)-2-(2,4,6-trimethylphenoxy)pyridine-3-carboxamide], the EC30 result is “+++ (“+++” means <3 uM)”.

As to `COc1ncc(-c2ccc(C(=O)NS(=O)(=O)c3cccc(N)n3)c(Oc3c(C)cc(C)cc3C)n2)cn1` [Compound 449, N-[(6-amino-2-pyridyl)sulfonyl]-6-(2-methoxypyrimidin-5-yl)-2-(2,4,6-trimethylphenoxy)pyridine-3-carboxamide], the EC30 entry is “+ (“+” means greater than 10 uM)”.

For `Cc1cc(C)c(Oc2nc(C(C)(C)C)ccc2C(=O)NS(=O)(=O)c2cccn(C)c2=O)c(C)c1` [Compound 667, 6-tert-butyl-N-[(1-methyl-2-oxo-3-pyridyl)sulfonyl]-2-(2,4,6-trimethylphenoxy)pyridine-3-carboxamide], the EC30 entry is given as “+++ (“+++” means <3 uM)”.

Take `CNc1cccc(S(=O)(=O)NC(=O)c2ccc(C(C)(C)C)nc2Oc2c(C)cc(C)cc2C)c1` [Compound 289, 6-tert-butyl-N-[3-(methylamino)phenyl]sulfonyl-2-(2,4,6-trimethylphenoxy)pyridine-3-carboxamide]: the EC30 result is recorded as “+++ (“+++” means <3 uM)”.

For the molecule `Cc1cc(C)c(Oc2nc(-c3cc(F)cc(OCC(C)C)c3)ccc2C(=O)NS(=O)(=O)c2cc[nH]n2)c(C)c1` [Compound 318, 6-(3-fluoro-5-isobutoxy-phenyl)-N-(1H-pyrazol-3-ylsulfonyl)-2-(2,4,6-trimethylphenoxy)pyridine-3-carboxamide], the EC30 result is “+++ (“+++” means <3 uM)”.

On to `CC(C)COc1cc(F)cc(-c2ccc(C(=O)NS(=O)(=O)c3cccc(N)n3)c(OC3CCC(C)C3)n2)c1` (centres unmarked) [Compound 452, N-[(6-amino-2-pyridyl)sulfonyl]-6-(3-fluoro-5-isobutoxy-phenyl)-2-(3-methylcyclopentoxy)pyridine-3-carboxamide], for which the EC30 result is listed as “+++ (“+++” means <3 uM)”.

`Cc1cc(C)c(Oc2nc(C(C)(C)C)ccc2C(=O)NS(=O)(=O)c2cccnc2)c(C)c1` [Compound 330, 6-tert-butyl-N-(3-pyridylsulfonyl)-2-(2,4,6-trimethylphenoxy)pyridine-3-carboxamide]: the EC30 result is recorded as “+++ (“+++” means <3 uM)”.

Regarding `COc1cccc(-c2cc(C(=O)NS(=O)(=O)c3ccccc3)n(Cc3c(C)cccc3C)n2)c1` [Compound 176, N-(benzenesulfonyl)-2-[(2,6-dimethylphenyl)methyl]-5-(3-methoxyphenyl)pyrazole-3-carboxamide], the EC30 entry is “+++ (“+++” means <3 uM)”.

In the case of `COCC1CCCCN1c1nc(-c2ccc(OC(C)C)nc2)ccc1C(=O)NS(=O)(=O)c1cccc(N)n1` (centres unmarked) [Compound 574, N-[(6-amino-2-pyridyl)sulfonyl]-6-(6-isopropoxy-3-pyridyl)-2-[2-(methoxymethyl)-1-piperidyl]pyridine-3-carboxamide], the EC30 result was “++ (“++” means between 3 uM and 10 uM)”.

Take `Cc1cc(C)c(CN2CC(C)(C)c3ccccc3C2C(=O)NS(=O)(=O)c2cccc(N)n2)c(C)c1` (centres unmarked) [Compound 140, N-[(6-amino-2-pyridyl)sulfonyl]-4,4-dimethyl-2-[(2,4,6-trimethylphenyl)methyl]-1,3-dihydroisoquinoline-1-carboxamide]: the EC30 entry was “+++ (“+++” means <3 uM)”.

In the case of `Cc1cc(C)c(Cn2c(C(=O)NS(=O)(=O)c3ccncc3)cc3cc(C)ccc32)c(C)c1` [Compound 25, 5-methyl-N-(4-pyridylsulfonyl)-1-[(2,4,6-trimethylphenyl)methyl]indole-2-carboxamide], the EC30 result was “++ (“++” means between 3 uM and 10 uM)”.

`Cc1cc(C)c(Oc2nc(-c3ccc(CC#N)cc3)ccc2C(=O)NS(=O)(=O)c2cccc(N)n2)c(C)c1` [Compound 638, N-[(6-amino-2-pyridyl)sulfonyl]-6-[4-(cyanomethyl)phenyl]-2-(2,4,6-trimethylphenoxy)pyridine-3-carboxamide]: the EC30 entry was “++ (“++” means between 3 uM and 10 uM)”.

In the case of `CC(C)COc1cc(F)cc(-c2ccc(C(=O)NS(=O)(=O)c3ccn[nH]3)c(N3CCCC(C(C)C)C3)n2)c1` (centres unmarked) [Compound 498, 6-(3-fluoro-5-isobutoxy-phenyl)-2-(3-isopropyl-1-piperidyl)-N-(1H-pyrazol-5-ylsulfonyl)pyridine-3-carboxamide], the EC30 entry is given as “+++ (“+++” means <3 uM)”.

Turning to `CNc1cccc(S(=O)(=O)NC(=O)C2Cc3ccccc3CCN2Cc2c(C)cc(C)cc2C)n1` (centres unmarked) [Compound 747, N-[[6-(methylamino)-2-pyridyl]sulfonyl]-3-[(2,4,6-trimethylphenyl)methyl]-1,2,4,5-tetrahydro-3-benzazepine-4-carboxamide], the EC30 entry was “+++ (“+++” means <3 uM)”.

Consider `Cc1cc(C)c(Cn2nc(OC(C)c3ccccc3)cc2C(=O)NS(=O)(=O)c2cccc(N)c2)c(C)c1` (centres unmarked) [Compound 278, N-(3-aminophenyl)sulfonyl-5-(1-phenylethoxy)-2-[(2,4,6-trimethylphenyl)methyl]pyrazole-3-carboxamide], for which the EC30 entry was “++ (“++” means between 3 uM and 10 uM)”.

Regarding `CC(C)COc1ccc(-c2ccc(C(=O)NS(=O)(=O)c3cccc(N)n3)c(N3CC(C)CC3(C)C)n2)cc1` (centres unmarked) [Compound 440, N-[(6-amino-2-pyridyl)sulfonyl]-6-(4-isobutoxyphenyl)-2-(2,2,4-trimethylpyrrolidin-1-yl)pyridine-3-carboxamide], the EC30 result is given as “+++ (“+++” means <3 uM)”.

For the molecule `CCC(C)(C)C1CCCN1c1nc(-c2cc(F)cc(OCC(C)C)c2)ccc1C(=O)NS(=O)(=O)c1cccc(N)n1` (centres unmarked) [Compound 493, N-[(6-amino-2-pyridyl)sulfonyl]-2-[2-(1,1-dimethylpropyl)pyrrolidin-1-yl]-6-(3-fluoro-5-isobutoxy-phenyl)pyridine-3-carboxamide], the EC30 entry is “+++ (“+++” means <3 uM)”.

The record behind these values is US10758534B2 (Vertex Pharmaceuticals Incorporated, priority 2014, dated 2020).
